Results as given in PubChem BioAssay (NCI).
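96-well plates; 48 h exposure; 5 concentrations. Endpoints by linear interpolation between flanking doses. Not reached: highest tested concentration assigned. Here, GI50 denotes the concentration required for 50% inhibition of growth. The concentration for full growth arrest is given as TGI.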 Where a SMILES comes first, the peptide text is derived from it. The star is where a group is joined. OBn = c1ccc(CO*)cc1

What was measured:
Assay in all cases: NCI tumour cell line growth inhibition, 48 h
[1] = test system: CCRF-CEM leukemia
[2] = test system: MDA-MB-435
[3] = test system: SR leukemia
[4] = test system: SF-268 CNS
[5] = test system: SF-295 CNS
[6] = test system: TK-10 renal
[7] = test system: HS 578T breast
[8] = test system: A549 NSCLC
[9] = test system: SNB-75 CNS
[10] = test system: DU-145 prostate
[11] = test system: NCI-H522 lung

Row | Compound | TGI [1] [µM] | TGI [2] [µM] | TGI [3] [µM] | TGI [4] [µM] | TGI [5] [µM] | TGI [6] [µM] | TGI [7] [µM] | TGI [8] [µM] | TGI [9] [µM] | TGI [10] [µM] | TGI [11] [µM] | GI50 [3] [µM]
1 | COc1ccc(-n2cnc3c(NC(C)(C)C(=O)O)ncnc32)cc1 | > 100 | > 100 | > 100 | > 100 | > 100 | > 100 | > 100 | > 100 | > 100 | > 100 |  | 
2 | CCOC(=O)c1c(-c2ccccc2)[nH]c2ccc(Cl)cc2c1=O | > 100 | > 100 | > 100 | > 100 | > 100 | > 100 | > 100 | > 100 | > 100 | > 100 | 60.8 | 
3 | COc1ccc2c(c1)/C(=C\c1cccc(/C=C3/C(=O)Nc4ccc(OC)cc43)n1)C(=O)N2 | > 38 | 6.81 | 0.452 | > 39.9 | 30.3 | 6.57 | > 46.9 | > 100 | > 100 | 9.73 | 6.9 | 0.209
4 | O=C1c2cccnc2C(=O)c2c1nc1ccccc1c2-c1cncc(-c2c3c(nc4ccccc24)C(=O)c2cccnc2C3=O)c1 | 2.08 | 0.9 | 0.0608 | 1.25 | 1.62 | 2.86 | 2.27 | 2.6 | 1.6 | 0.565 | 0.784 | 
5 | COC(=O)N/N=C(\C)C(CN1CCOCC1)C(c1ccccc1)c1cc2ccccc2oc1=O (configuration not stated) | > 100 | > 100 | 56.5 | > 100 | > 100 | > 100 | > 100 | > 100 | > 100 | > 100 | > 100 | 
6 | COc1cc(C2S/C(=C/c3ccccc3)C(=O)N2c2ccc([N+](=O)[O-])cc2)cc(OC)c1OC (configuration not stated) | > 100 | > 100 | > 100 | > 100 | > 100 | > 100 | > 100 | > 100 | > 100 | > 89.1 | > 100 | 
7 | CCOC(=O)/C(=C\NC(C)(C)C)c1nc2ccccc2o1 | 54.6 | > 100 | 48.6 | > 100 | > 100 | > 100 | 63.9 | > 100 | > 100 | > 100 | > 100 | 
8 | CCOC(=O)Oc1cc2c(ccn2C)c2c1c1ccccc1n2C(=O)OCC | > 100 | > 100 | > 100 | > 100 | > 100 | > 100 | > 100 | > 100 | > 100 | > 100 | > 100 | 
9 | CC(Oc1ccc(Cl)cc1Cl)C(=O)NN1C(=O)CSC1c1ccc(Cl)cc1 (configuration not stated) |  | > 100 | 41.3 | > 100 | > 100 | > 100 | > 100 | > 100 | 72.7 | > 100 | > 100 | 
10 | CCOC(=O)c1c(NC(=O)c2ccc(OC)cc2)sc2c1CCCC2 | > 100 | > 100 | > 100 | > 100 | > 100 | > 100 | > 100 | > 100 |  | > 100 |  | 
11 | C/C(=C\COP(=O)(O)OP(=O)(O)O)CC/C=C(\C)CNc1ccc([N+](=O)[O-])cc1 | > 100 | > 100 | > 100 | > 100 | > 100 | > 100 | > 100 | > 100 | > 100 | > 100 | > 100 | 
12 | CCn1c(SCC(=O)NNC(=S)Nc2ccc(F)cc2)nc2ccccc2c1=O | > 100 | > 100 | > 100 | > 100 | > 100 | > 100 | > 100 | > 100 | > 100 | > 100 | > 100 | 
13 | O=c1c2c3c(sc2nc2n1N=CN(c1ccc(Cl)cc1)C2)CCCC3 | > 100 | > 100 | 51.1 | > 100 | > 100 | > 100 | 36.9 | > 100 | > 100 | > 100 | > 100 | 
14 | C#C[C@]1(O)CC[C@H]2[C@@H]3CCC4=C/C(=N\OCCN5CCCC5)CC[C@]4(C)[C@H]3CC[C@@]21C | 51.6 | 15 | 13.3 | 30.1 | 14.5 | 38.3 | 21.7 | > 59.8 | 24.7 | 41 | 12 | 
15 | CC(C)(C)C(=O)Nc1cccc(-c2ccc[nH]2)n1 | > 100 | > 100 | > 100 | > 100 | > 100 | > 100 | 87.5 | > 100 | > 100 | > 100 | > 100 | 
16 | CC(C)(CCCCC(C)(C)NCC1COc2ccccc2O1)NCC1COc2ccccc2O1 (configuration not stated) | > 10 | 3.6 | > 10 | > 10 | > 10 | > 10 | > 10 | > 10 | > 10 | > 10 | > 10 | 
17 | NC(CCC(=O)OCc1ccccc1)C(=O)NC(CCC(=O)OCc1ccccc1)C(=O)O (configuration not stated) (H-Glu(OBn)-Glu(OBn)-OH; configuration not given here) | > 100 | > 100 | > 100 | > 100 | > 100 | > 100 | > 100 | > 100 | > 100 | > 100 | > 100 | 
18 | O=c1[nH]c(=O)n(C2CC(O)C(CO)O2)c2nc3ccc4ccccc4c3nc12 (configuration not stated) | > 100 | > 100 | > 100 | > 100 | > 100 | > 100 | > 100 | > 100 | > 100 | > 100 | > 100 | 
19 | CC1(C)OC(=O)CC12CCN(Cc1ccccc1)CC2 | > 100 | > 100 | > 100 | > 100 | > 100 | > 100 | > 100 | > 100 | > 100 | > 100 | > 100 | 
20 | O=c1[nH]n(Cc2ccccc2CCl)c2ccc([N+](=O)[O-])cc12 | > 100 | > 100 | > 100 | > 100 | > 100 | > 100 | > 100 | > 100 |  | > 100 | 63.2 | 

Row | Compound | TGI [1] [µM] | TGI [2] [µM] | TGI [3] [µM] | TGI [4] [µM] | TGI [5] [µM] | TGI [6] [µM] | TGI [7] [µM] | TGI [8] [µM] | TGI [9] [µM] | TGI [10] [µM] | TGI [11] [µM] | GI50 [3] [µM]
21 | COc1cc(/C=N/NC2=NCCCN2)ccc1O | > 100 | > 100 | > 100 | > 100 | > 100 | > 100 | > 100 | > 100 | > 100 | > 100 | > 100 | 
22 | CN1CCC/C1=C1\C(=O)c2cccn2C1=O | > 100 | > 100 | > 100 | > 100 | > 100 | > 100 | > 100 | > 100 | > 100 | > 100 | > 100 | 
23 | O=c1[nH]c2ccsc2c(=O)n1COCc1ccccc1 | > 100 | > 100 | > 100 | > 100 | > 100 | > 100 | > 100 | > 100 | > 100 | > 100 | > 100 | 
24 | O=Cc1ccc2c(c1)CC1(C2)Cc2ccc(C=O)cc2C1 | 5.9 | 6.15 | 6.77 | 44.6 | > 70.4 | 65 | 28.7 | > 95.3 | > 100 | > 100 | 54.9 | 
25 | C=CC(c1ccccc1)C1(O)c2cccc(O)c2C(=O)c2c(O)cccc21 (configuration not stated) |  | 22 | 24.2 | 36.6 | 40.4 | 38.6 | 34.8 | 32.9 | 41.8 | 28.8 | 30.1 | 
26 | O=C(/C=C\c1ccccc1-c1ccccc1)c1ccccc1 | > 100 | > 100 | > 100 | > 100 | > 100 | > 100 | > 100 | 91.9 | > 100 | > 100 | > 100 | 
27 | N#CC1=C(N2CCOCC2)CCC1 | > 100 | > 100 | > 100 | > 100 | > 100 | > 100 | > 100 | > 100 | > 100 | > 100 | > 100 | 
28 | CC(=C(C(=O)O)C(=O)O)c1cc(-c2cccs2)cc(-c2ccc(Cl)cc2)c1O | > 76.5 | 35.1 | 37.1 | 54.9 | 46.5 | 31.9 | > 90.7 | > 80.8 | 37.6 | 30.6 | 33.3 | 
29 | COC(=O)C(Cc1c[nH]c2ccccc12)NP(=O)(O)OCC1OC(n2cc(F)c(=O)[nH]c2=O)CC1O (configuration not stated) | > 59.1 | > 100 | > 51.9 | > 100 | > 100 | > 100 | > 100 | > 100 | > 100 | > 100 | > 100 | 
30 | NC(=S)N/N=C(/C(=O)Nc1nc2ccc([N+](=O)[O-])cc2s1)C1C(=O)NC(=S)NC1=O | > 100 | > 100 | > 100 | > 100 | > 100 |  | 74.3 | > 100 |  | > 100 |  | 
31 | O=C1CCSc2c(cnc3ccccc23)N1 | > 100 | > 100 | > 100 | > 100 | > 100 | > 100 | > 100 | > 100 | > 100 | > 100 | > 100 | 
32 | Nc1c(Cl)c([N+](=O)[O-])cc2c1OCCCCO2 | > 100 | > 100 | > 100 | > 100 | > 100 | > 100 | > 100 | > 100 | 93 | > 100 | 5.28 | 
33 | COc1cc(/C=C2\N=C(c3ccccc3)N(/N=C/c3cc4cc(C)ccc4nc3Cl)C2=O)cc(OC)c1OC |  | 40.7 | 57.4 | > 100 | > 100 | > 100 | 88.8 | > 100 | 61.5 | 80.6 |  | 
34 | COc1ccc(C(=O)N2CCN(c3ccc4[nH]c(=O)oc4c3)CC2)cc1 | > 100 | > 100 | > 100 | > 100 | > 100 | > 100 | > 100 | > 100 | > 100 | > 100 | > 100 | 
35 | O=C1NC(Cc2c[nH]c3ccccc23)C(=O)N2C(c3ccccc3)c3[nH]c4ccccc4c3C[C@@H]12 (some centres not stated) |  | 39.7 | 37.7 | 95.7 | 33.1 | 91.4 | 40.6 | > 100 |  | > 100 | 45.5 | 
36 | CC(C)N(c1cc2c(cc1F)c(=O)c(C(=O)O)cn2-c1ccc(N2CCN(C)CC2)cn1)C(C)C | > 100 | > 100 | > 100 | > 100 | > 100 | > 100 | > 100 | > 100 | > 100 | > 100 |  | 
37 | C/C(=N/NC(=S)N1CCCC1)c1cccc(/C(C)=N\NC(=S)N2CCCC2)n1 | 3.01 | 3.13 | 7.58 | 14.7 | 2.24 | 3.71 | 25.2 | 9.01 |  | 38.5 | 7.77 | 
38 | CN1CCN(C(=S)N(C)C(=O)c2cccs2)CC1 | > 100 | > 100 | > 100 |  | > 100 | > 100 | > 100 | > 100 |  | > 100 | > 100 | 
39 | COC(=O)[C@]12CSC[C@H]1C[C@H](c1ccc(N(C)C)cc1)N2 | > 100 | > 100 | > 100 | > 100 | > 100 | > 100 | > 100 | > 100 | > 100 | > 100 |  | 
40 | COC(=O)/C(C#N)=C(\Nc1ccccc1)N1CCCCC1 |  | > 100 | > 100 | > 100 | > 100 | > 100 | > 100 | > 100 | > 100 | > 100 | > 100 | 
